How the values were obtained:
[1] = test system: L. donovani axenic amastigote-like parasites; test: Axenic amastigote assay (CellTiter 96 tetrazolium dye growth assay); format: cell-based; conditions: 72 hours, 37° C., pH 5.5, concentration that inhibited parasite growth by 50%
Protocol: The growth susceptibilities of L. donovani axenic amastigote-like parasites to the candidate compounds were measured in a three day assay using the tetrazolium dye-based CellTiter 96 Aqueous Non-Radioactive Cell Proliferation Assay Kit (Promega, Madison, Wis.) according to Werbovetz, K., et al. (1999) Mol. Biochem. Parasitol. 98:53-65, which is herein incorporated by reference. Pentamidine, at a starting concentration of 100 μM, and serial dilutions thereof were used as controls. Specifically, L. donovani axenic amastigotes, as described by Joshi, M. et al. (1993) Mol. Biochem. Parasitol. 58:345-354, which is herein incorporated by reference, were seeded at 10^6 cells/ml in 96-well flat-bottomed plates (Costar, Cambridge, Mass.) and maintained as axenic amastigote-like forms by serial passage at 37° C. in a humid atmosphere comprising 5% CO2 using a slightly modified potassium-based version of the medium described by Joshi, M. et al. (1993) in the presence or absence of a given candidate compound. The medium comprised 15 mM KCl, […] KH2PO4, 10 mM K2HPO4, 0.5 mM MgSO4, and 24 mM NaHCO3 to give a final potassium concentration of […]. The medium was supplemented with 20% fetal bovine serum and was brought to pH 5.5. The final volume in each well was 60 μl. The plates were incubated at 37° C. for 72 hours, then 12 μl of the aqueous CellTiter solution from the kit (Promega, Madison, Wis.) was added to each well according to the instructions of the manufacturer. The plates were returned to the incubator for about 2 to about 3 hours. Then the absorbance of each well was measured at 490 nm using a SpectraMax Plus microplate reader (Molecular Devices, Sunnyvale, Calif.).
The results for each candidate compound may be found in the FIG. 1. The IC50 values (the concentration of the agent that inhibited parasite growth by 50%) for each candidate compound were determined for axenic amastigotes with the aid of the program SoftMax Pro (Molecular Devices, Sunnyvale, Calif.) using the following dose response equation: y=((a−d)/1+(x/c)^b)+d, wherein x=drug concentration; y=absorbance at 490 nm; a=upper asymptote; b=slope; c=IC50; and d=lower asymptote. FIG. 2 is the graphical data obtained for compound 1DWB667 as an example.

[2] = test system: L. donovani infected macrophages; test: Infected macrophage assay, L. donovani; format: cell-based; conditions: for Macrophage IC50 L. donovani: J774.G8 mouse macrophages, 72 hours, 37° C., number of infected macrophages inhibited by 50%
Excerpt: A one week old, confluent culture of J774.G8 mouse macrophages was washed three times with Hank's Balanced Salt Solution (HBSS) without calcium and magnesium (Sigma, St. Louis, Mo.). The J774.G8 mouse macrophages are a continuous cell line that have been cited in the literature as supporting continuous and intracellular growth of various Leishmania sp. and they have been used for drug assays against intracellular parasites, Trypanosoma cruzi and Leishmania sp. See Alcina, A., et al. (1988) Antimicrobial Agents & Chemotherapy. 32(9):1412-5; Mendez, S., et al. (1996) International Journal for Parasitology 26(6):619-22; Hodgkinson, V. H., et al. (1996) Experimental Parasitology 83(1):94-105; and Chang, K. P. (1980) Science 209(4462): 1240-42, which are herein incorporated by reference.
The macrophages were then incubated at 37° C. in a humidified 5% CO2 incubator for 15 minutes with a Trypsin-EDTA (0.05% Trypsin, 0.53 mM EDTA 4Na) solution (GIBCO BRL, Grand Island, N.Y.). The macrophages were then detached with a cell scraper and suspended by vigorous pipetting. The macrophages were then mixed with a late log phase culture of L. mexicana promastigotes to yield a solution comprising about 5×10^5 macrophages per ml and about 25×10^5 promastigotes per ml in DMEM (pH 7.4) supplemented with 10% heat inactivated fetal calf serum comprising penicillin (50 units/ml) and streptomycin (50 μg/ml).
The macrophage-parasite mixture was then pipetted into 96-well flat-bottom plates (Costar, Cambridge, Mass.) at 200 μl per well. Infection and attachment of the macrophages was allowed to occur over a period of about 48 hours at 33° C. in a humidified 5% CO2 incubator. The wells were washed three times with HBSS to remove extracellular parasites. Each well was then treated with serial dilutions of a given candidate compound in DMEM.
The treated plate was incubated for about 72 hours at 33° C. in a humidified 5% CO2 incubator. The macrophages in each well were detached into the DMEM used for the incubation by pipetting and scraping with the tip of a microliter pipettor. 75 μl of the cell suspension was transferred to a cytospin funnel and the cells were centrifuged onto microscope slides at 800 rpm for 5 minutes using a Cytospin centrifuge (Shandon, Pittsburgh, Pa.).
The slides were air dried and then fixed in methanol for 5 seconds. After the methanol evaporated, the slides were stained with 5% Giemsa stain (Fisher, Suwanee, Ga.) in phosphate buffer comprising 3.1 mM potassium phosphate dibasic and 8.3 mM sodium phosphate monobasic for 45 minutes. After thorough washing with flowing tap water, the slides were air dried and then viewed by oil immersion microscopy to determine percentage of infected cells. A cell was considered to be infected if it comprised one or more amastigote with a visible parasite nucleus and kinetoplast. Counting parasites and counting infected cells provided similar results when determining IC50 values.
The IC50 values (the concentration of the compound that inhibited the number of infected macrophages by 50%) were determined with the software program TableCurve (SPSS Science, Chicago, Ill.) using the following dose-response equation: y=a+b/(1+(x/c)^d), where x=the drug concentration, y=absorbance at 490 nm, a=upper asymptote, b=slope, c=IC50 and d=lower asymptote. FIG. 3 provides the graphical data obtained for compound 1DWB667 as an example.
The susceptibility of L. donovani infected macrophages to the compounds of the present invention were preformed by a modified protocol for L. mexicana infected macrophages above, wherein all incubations of the parasite infected macrophages were done at 37° C. rather than 33° C. FIG. 4 provides the graphical data for compound 1DWB667 as an example.

Substance	Axenic Amastigote IC50 L. donovani [1] [µg/mL]	Axenic Amastigote IC50 L. donovani ([1]; listed as DB702)	Macrophage IC50 L. donovani [2] [µg/mL]	Macrophage IC50 L. donovani ([2]; listed as DB702)	Macrophage IC50 L. donovani ([2]; listed as 1DWB667)	Axenic Amastigote IC50 L. donovani ([1]; listed as DB710)	Axenic Amastigote IC50 L. donovani ([1]; listed as DB709)	reduction of parasite burden in L. donovani infected macrophages (in words) ([2]; in vitro, visceral strain)
2,5-Bis[2-methyl-4-(2-pyridylimino)aminophenyl]furan [DB 702]	0.174	about 0.2 μg/ml	0.063	about 0.1 μg/ml				
2,5-Bis[4-(2-pyridylimino)aminophenyl]furan [1DWB 667]	0.550		0.942		about 1.4 μg/ml			
2,5-Bis[2-methyl-4-(5-methyl-2-pyridylimino)aminophenyl]furan [DB 710]	0.242		0.530			about 0.2 μg/ml		
2,5-Bis[2-methoxy-4-(2-pyridylimino)aminophenyl]furan [DB 709]	0.157		0.104				about 0.2 μg/ml	
2,5-Bis[2-chloro-4-(2-pyridylimino)aminophenyl]furan [DB 712]	0.308		0.127					least effective in reducing parasite burden

— patent US6706754B2, “Reversed amidines and methods of using for treating, preventing, or inhibiting leishmaniasis” (The United States of America as represented by the …, priority 2000, dated 2004)
